According to ChEMBL document CHEMBL5126532, “Synthetic approaches and structural diversity of triazolylbutanols derived from voriconazole in the antifungal drug development” (Eur J Med Chem, 2022):
In brackets after ≈: the same amount, converted by molar mass.

Legend:
[1] = Prodrug conversion in rat plasma assessed as half life; assay type: ADME, cell-free
[2] = system: Candida albicans; experiment: Antifungal activity against Candida albicans TIMM1756 assessed as inhibition of fungal growth incubated for 20 hrs; assay type: functional
[3] = system: Candida albicans; experiment: Antifungal activity against Candida albicans TIMM1850 assessed as inhibition of fungal growth incubated for 20 hrs; assay type: functional
[4] = system: Cryptococcus neoformans; experiment: Antifungal activity against Cryptococcus neoformans TIMM1740 assessed as inhibition of fungal growth incubated for 68 hrs; assay type: functional
[5] = system: Cryptococcus neoformans; experiment: Antifungal activity against Cryptococcus neoformans TIMM1855 assessed as inhibition of fungal growth incubated for 68 hrs; assay type: functional
[6] = system: Aspergillus fumigatus; experiment: Antifungal activity against Aspergillus fumigatus TIMM1728 assessed as inhibition of fungal growth incubated for 20 hrs; assay type: functional
[7] = system: Aspergillus fumigatus; experiment: Antifungal activity against Aspergillus fumigatus IFO6344 assessed as inhibition of fungal growth incubated for 20 hrs; assay type: functional
[8] = system: Candida albicans; experiment: In vivo antifungal activity against Candida albicans infected in CDF1 mouse treated po 4 hrs after injection twice daily for 2 days measured on day 10; assay type: functional; settings: 48 h, time 2 day
[9] = system: Aspergillus fumigatus; experiment: In vivo antifungal activity against Aspergillus fumigatus infected in CDF1 mouse treated po 4 hrs after injection twice daily for 2 days measured on day 10; assay type: functional; settings: 48 h, time 2 day
[10] = system: Candida albicans; experiment: Antifungal activity against Candida albicans TIMM1756 by agar-dilution assay; assay type: functional
[11] = system: Candida albicans; experiment: Antifungal activity against Candida albicans TIMM1850 by agar-dilution assay; assay type: functional
[12] = system: Cryptococcus neoformans; experiment: Antifungal activity against Cryptococcus neoformans TIMM1740 by agar-dilution assay; assay type: functional
[13] = system: Cryptococcus neoformans; experiment: Antifungal activity against Cryptococcus neoformans TIMM1855 by agar-dilution assay; assay type: functional; settings: TIMM 1855
[14] = system: Aspergillus fumigatus; experiment: Antifungal activity against Aspergillus fumigatus 437 by agar-dilution assay; assay type: functional
[15] = system: Aspergillus fumigatus; experiment: Antifungal activity against Aspergillus fumigatus IFO6344 by agar-dilution assay; assay type: functional
[16] = system: Aspergillus fumigatus; experiment: Antifungal activity against Aspergillus fumigatus TIMM1728 by agar-dilution assay; assay type: functional
[17] = system: Candida albicans; experiment: Antifungal activity against Candida albicans SANK 51486 by 96-well microplate method; assay type: functional
[18] = system: Cryptococcus neoformans; experiment: Antifungal activity against Cryptococcus neoformans TIMM 1855 by 96-well microplate method; assay type: functional
[19] = system: Aspergillus fumigatus; experiment: Antifungal activity against Aspergillus fumigatus SANK 10569 by 96-well microplate method; assay type: functional
[20] = system: Aspergillus flavus; experiment: Antifungal activity against Aspergillus flavus SANK 18497 by 96-well microplate method; assay type: functional
[21] = system: Aspergillus; experiment: Antifungal activity against Aspergillus; assay type: functional
[22] = system: Aspergillus fumigatus; experiment: Antifungal activity against Aspergillus fumigatus in 96-well microplate method; assay type: functional
[23] = system: Candida albicans; experiment: In vivo antifungal activity against Candida albicans ATCC48130 infected in Fisher rat administered IV; assay type: functional
[24] = system: Aspergillus fumigatus; experiment: In vivo antifungal activity against Aspergillus fumigatus infected in Fisher rat administered IV; assay type: functional
[25] = system: Candida albicans; experiment: In vivo antifungal activity against Candida albicans ATCC48130 infected in Fisher rat administered po; assay type: functional
[26] = system: Aspergillus fumigatus; experiment: In vivo antifungal activity against Aspergillus fumigatus infected in Fisher rat administered po; assay type: functional
[27] = Plasma protein binding in human; assay type: ADME, cell-free; settings: route po, read-out: PPB (converted)
[28] = system: Candida parapsilosis; experiment: Antifungal activity against Candida parapsilosis; assay type: functional; settings: Lodderomyces parapsilosis
[29] = system: Aspergillus fumigatus; experiment: Antifungal activity against Aspergillus fumigatus; assay type: functional
[30] = system: Candida albicans; experiment: Antifungal activity against Candida albicans; assay type: functional
[31] = system: Candida tropicalis; experiment: Antifungal activity against Candida tropicalis; assay type: functional
[32] = system: Nakaseomyces glabratus; experiment: Antifungal activity against Candida glabrata; assay type: functional
[33] = system: Pichia kudriavzevii; experiment: Antifungal activity against Candida krusei; assay type: functional
[34] = system: Candida albicans; experiment: In vivo antifungal activity against Candida albicans infected in CDF1 mouse treated po or iv immediately after infection measured on day 7; assay type: functional; settings: 168 h, time 7 day
[35] = system: Candida albicans; experiment: In vivo antifungal activity against Candida albicans infected in CDF1 mouse treated po or iv 2 hrs after infection twice daily for 2 days measured on day 10; assay type: functional; settings: 240 h, time 10 day
[36] = system: Nannizzia gypsea; experiment: Antifungal activity against Microsporum gypseum; assay type: functional
[37] = Oral bioavailability in monkey relative to control; assay type: ADME, organism-based, Macaca mulatta; settings: rhesus monkey, in vivo
[38] = Water solubility of the compound at pH 7.4; assay type: physicochemical; settings: buffer
[39] = target: Cytochrome P450 3A4 (Homo sapiens, UniProt P08684); experiment: Inhibition of CYP3A4 in human hepatocyte microsomes using testosterone as substrate by LC-MS/MS analysis; assay type: ADME, Microsome
Chain of Cytochrome P450 3A4 (P08684 whole entry): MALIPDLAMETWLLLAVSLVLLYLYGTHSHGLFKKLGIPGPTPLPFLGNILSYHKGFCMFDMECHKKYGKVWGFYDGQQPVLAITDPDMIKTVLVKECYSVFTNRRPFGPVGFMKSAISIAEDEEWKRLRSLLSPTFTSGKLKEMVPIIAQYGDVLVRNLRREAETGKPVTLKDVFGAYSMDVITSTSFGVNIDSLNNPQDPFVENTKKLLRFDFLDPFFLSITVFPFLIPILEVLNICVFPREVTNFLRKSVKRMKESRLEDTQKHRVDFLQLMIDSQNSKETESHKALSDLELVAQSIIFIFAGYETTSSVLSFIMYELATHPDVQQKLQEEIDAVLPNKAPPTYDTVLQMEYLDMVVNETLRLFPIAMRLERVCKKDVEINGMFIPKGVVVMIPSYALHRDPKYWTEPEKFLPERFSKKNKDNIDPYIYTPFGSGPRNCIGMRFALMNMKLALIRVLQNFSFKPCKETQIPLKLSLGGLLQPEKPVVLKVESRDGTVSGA

CC(=O)OCc1ccccc1N(C)C(=O)OC[n+]1cnn(C[C@](O)(c2ccc(F)cc2F)[C@@H](C)c2nc(-c3ccc(C#N)cc3)cs2)c1.[Cl-]
t1/2 [1]: 13 min

C[C@@H](N1CCN(c2ccc(-n3ncnn3)cc2)C1=O)[C@](O)(Cn1cncn1)c1ccc(F)cc1F
MIC [2]: ≤ 0.001 µg/mL
MIC [3]: ≤ 0.001 µg/mL
MIC [4]: 0.016 µg/mL (≈ 0.0332 µM)
MIC [5]: 0.016 µg/mL (≈ 0.0332 µM)
MIC [6]: 0.25 µg/mL (≈ 0.519 µM)
MIC [7]: 0.25 µg/mL (≈ 0.519 µM)
ED50 [8]: 0.18 mg/kg
ED50 [9]: 4 mg/kg
MIC [10]: 0.002 µg/mL (≈ 0.00415 µM)
MIC [11]: 0.002 µg/mL (≈ 0.00415 µM)
MIC [12]: 0.03 µg/mL (≈ 0.0623 µM)
MIC [13]: 0.03 µg/mL (≈ 0.0623 µM)
MIC [14]: 0.03 µg/mL (≈ 0.0623 µM)
MIC [15]: 0.03 µg/mL (≈ 0.0623 µM)
MIC [16]: 0.03 µg/mL (≈ 0.0623 µM)

C[C@@H](S[C@H]1CO[C@H](/C=C/C=C/c2ccc(OCC(F)(F)C(F)F)cc2)OC1)[C@](O)(Cn1cncn1)c1ccc(F)cc1F
MIC [17]: 0.016 µg/mL (≈ 0.0254 µM)
MIC [18]: 0.031 µg/mL (≈ 0.0492 µM)
MIC [19]: 0.125 µg/mL (≈ 0.199 µM)
MIC [20]: 0.125 µg/mL (≈ 0.199 µM)
MIC [21]: ≤ 0.5 µg/mL

COc1ccc(-c2nc3c(s2)CN([C@H](C)[C@](O)(Cn2cncn2)c2ccc(F)cc2F)C3=O)cn1
MIC80 [22]: 4 µg/mL (≈ 8.02 µM)

CNCC(=O)Oc1c(C)cc(C[n+]2cnn(C[C@](O)(c3ccc(F)cc3F)[C@@H](C)c3nc(-c4ccc(C#N)cc4)cs3)c2)cc1C
ED50 [23]: 4.6 µmol/kg
ED50 [24]: 17 µmol/kg
ED50 [25]: 4.7 µmol/kg
ED50 [26]: 19 µmol/kg

C=C1CCN([C@H](C)[C@](O)(Cn2cncn2)c2ccc(F)cc2F)CC1 [EFINACONAZOLE]
fraction unbound [27]: 0.04

C[C@@H](S[C@H]1CO[C@H](/C=C/C=C/c2ccc(C#N)cc2F)OC1)[C@](O)(Cn1cncn1)c1ccc(F)cc1F [EMBECONAZOLE]
MIC [17]: ≤ 0.008 µg/mL
MIC [18]: ≤ 0.008 µg/mL
MIC [19]: ≤ 0.008 µg/mL
MIC [20]: ≤ 0.008 µg/mL
MIC [21]: < 0.5 µg/mL

OC(Cn1cncn1)(Cn1cncn1)c1ccc(F)cc1F [FLUCONAZOLE]
MIC [28]: 0.12 µg/mL (≈ 0.392 µM)
MIC [29]: > 64 µg/mL
MIC [30]: 0.12 µg/mL (≈ 0.392 µM)
MIC [31]: 0.12 µg/mL (≈ 0.392 µM)
MIC [32]: 0.12 µg/mL (≈ 0.392 µM)
MIC [33]: 0.12 µg/mL (≈ 0.392 µM)
ED50 [34]: 0.22 mg/kg
ED50 [35]: 179 mg/kg
ED50 [8]: 0.22 mg/kg
MIC [17]: 0.25 µg/mL (≈ 0.816 µM)
MIC [18]: 0.25 µg/mL (≈ 0.816 µM)
MIC [19]: 0.25 µg/mL (≈ 0.816 µM)
MIC [20]: 0.25 µg/mL (≈ 0.816 µM)
MIC [36]: 32 µg/mL (≈ 104 µM)

C[C@@H](c1nc(-c2ccc(C#N)cc2)cs1)[C@](O)(Cn1cncn1)c1cc(F)ccc1F [ISAVUCONAZOLE]
bioavailability [37]: 87%

CCC(C)n1ncn(-c2ccc(N3CCN(c4ccc(OCC5COC(Cn6cncn6)(c6ccc(Cl)cc6Cl)O5)cc4)CC3)cc2)c1=O (stereo unspecified) [ITRACONAZOLE]
MIC [28]: ≤ 0.25 µg/mL
MIC [30]: ≤ 0.25 µg/mL
MIC [31]: ≤ 0.25 µg/mL
MIC [32]: ≤ 0.25 µg/mL
MIC [33]: ≤ 0.25 µg/mL
ED50 [34]: 5.19 mg/kg
ED50 [35]: 19 mg/kg
MIC [17]: 0.031 µg/mL (≈ 0.0439 µM)
MIC [18]: 0.031 µg/mL (≈ 0.0439 µM)
MIC [19]: 0.031 µg/mL (≈ 0.0439 µM)
MIC [20]: 0.031 µg/mL (≈ 0.0439 µM)

C[C@@H](c1nc(-c2ccc(C#N)cc2)cs1)[C@](O)(Cn1cncn1)c1ccc(F)cc1F [RAVUCONAZOLE]
solubility [38]: 600 µg/mL (≈ 1370 µM)
MIC80 [36]: 1 µg/mL (≈ 2.29 µM)
IC50 [39]: 1010 nM
